Assay results as given in paper PMC11121672, “Screening of Small-Molecule Libraries Using SARS-CoV-2-Derived Sequences Identifies Novel Furin Inhibitors” (International Journal of Molecular Sciences, 2024).

Biological target: T1, Furin (Homo sapiens, UniProt P09958)
T1 construct: soluble Furin (sFur), truncated before its transmembrane domain (BTMD)
Assay: fluorogenic AMC peptide cleavage assay, […] dose response, not sigmoidal
Format: cell-based

T1 sequence (P09958 108-715): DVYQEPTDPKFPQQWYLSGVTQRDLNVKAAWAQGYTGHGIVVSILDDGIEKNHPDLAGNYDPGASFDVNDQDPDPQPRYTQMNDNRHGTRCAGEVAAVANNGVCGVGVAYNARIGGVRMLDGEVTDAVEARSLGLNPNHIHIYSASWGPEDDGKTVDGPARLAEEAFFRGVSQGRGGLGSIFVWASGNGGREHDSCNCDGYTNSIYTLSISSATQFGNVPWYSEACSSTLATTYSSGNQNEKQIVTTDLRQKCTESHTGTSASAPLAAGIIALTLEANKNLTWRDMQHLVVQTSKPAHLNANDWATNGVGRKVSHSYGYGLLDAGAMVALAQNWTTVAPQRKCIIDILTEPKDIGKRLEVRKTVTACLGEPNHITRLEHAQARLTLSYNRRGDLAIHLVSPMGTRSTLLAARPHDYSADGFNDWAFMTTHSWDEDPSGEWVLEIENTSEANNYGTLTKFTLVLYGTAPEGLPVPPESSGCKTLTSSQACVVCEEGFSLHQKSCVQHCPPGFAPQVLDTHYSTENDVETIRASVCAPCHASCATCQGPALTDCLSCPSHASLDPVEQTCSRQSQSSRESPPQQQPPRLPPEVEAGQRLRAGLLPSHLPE

Q: `Cc1ccc(Cl)cc1N(CCC(=O)O)c1nc2c(s1)C(=O)c1ccccc1C2=O` [P5, 3-((5-Chloro-2-methylphenyl)(4,9-dioxo-4,9-dihydronaphtho[2,3-d]thiazol-2-yl)amino)propanoic acid] was tested. Which “fluorogenic AMC peptide cleavage assay, 2.5-100 μg/mL dose response, not sigmoid” value did it give?
A: P3, P5, P7, P9, P13, and P16—were confirmed as novel Furin inhibitors, showing typical dose-dependent activity

Q: How did the “fluorogenic AMC peptide cleavage assay, 2.5-100 μg/mL dose response, not sigmoid” value turn out when `CCOC(=O)C=C(C)n1c2c(=O)c3ccccc3c(=O)c=2oc2ccc([N+](=O)[O-])cc21` [P13, Ethyl 3-(2-nitro-6,11-dioxo-6,11-dihydro-12H-benzo[b]phenoxazin-12-yl)but-2-enoate] was run?
A: P3, P5, P7, P9, P13, and P16—were confirmed as novel Furin inhibitors, showing typical dose-dependent activity

Q: With `O=C(O)CCN(c1ccc(Cl)cc1)c1nc2c(s1)C(=O)c1ccccc1C2=O` [P9, 3-((4-Chlorophenyl)(4,9-dioxo-4,9-dihydronaphtho[2,3-d]thiazol-2-yl)amino)propanoic acid] as the compound, how does the “fluorogenic AMC peptide cleavage assay, 2.5-100 μg/mL dose response, not sigmoid” value read?
A: P3, P5, P7, P9, P13, and P16—were confirmed as novel Furin inhibitors, showing typical dose-dependent activity

Biological target: T1, Furin
Assay: fluorogenic AMC peptide cleavage assay, soluble furin in conditioned HEK-293T medium without further purification
Format: biochemical

Q: Which IC50 does the source give for `Cc1ccc(N(CCC(=O)O)C2=NC(=O)C(=Cc3ccc(Br)s3)S2)cc1Cl` [P3, 3-((5-((5-Bromothiophen-2-yl)methylene)-4-oxo-4,5-dihydrothiazol-2-yl)(3-chloro-4-methylphenyl)amino)propanoic acid] here?
A: 35 µM

Q: For `Cc1ccc(N(CCC(=O)O)C2=NC(=O)C(=Cc3cccs3)S2)cc1Cl` [P16, 3-((3-Chloro-4-methylphenyl)(4-oxo-5-(thiophen-2-ylmethylene)-4,5-dihydrothiazol-2-yl)amino)propanoic acid], which IC50 is on record?
A: 79 µM

Q: With `CN(C)c1ccc(C=C2SC(N(CCC(=O)O)c3ccc(Cl)cc3)=NC2=O)cc1` [P7, 3-((4-Chlorophenyl)(5-(4-(dimethylamino)benzylidene)-4-oxo-4,5-dihydrothiazol-2-yl)amino)propanoic acid] as the compound, how does the IC50 read?
A: 62 µM
